Values of other authors as cited in patent publication US20260042735A1, “BENZYLTRYPTAMINE COMPOUNDS” (priority 2021, published 2026).

Tests used:
5-HT6 = 5-HT6 (Homo sapiens (Human), UniProt P50406); settings: cited from earlier work
5-HT3 = 5-HT3 (Homo sapiens (Human), UniProt P46098); settings: read-out: Ki 5-HT3; cited from earlier work
SERT = SERT (Homo sapiens (Human), UniProt P31645); settings: cited from earlier work
dopamine receptors = settings: cited from earlier work
5-HT1B = 5-HT1B (Homo sapiens (Human), UniProt P28222); settings: cited from earlier work
5-HT7 = 5-HT7 (Homo sapiens (Human), UniProt P34969); settings: cited from earlier work
5-HT5 = 5-HT5 (Homo sapiens (Human), UniProt P47898); settings: cited from earlier work
5-HT1D = 5-HT1D (Homo sapiens (Human), UniProt P28221); settings: cited from earlier work
mouse head twitch = settings: much lower potency relative to psilocin; cited from earlier work
5HT2B receptor [1] = target: T1, 5HT2B receptor (Homo sapiens, UniProt P41595); settings: cited from earlier work
5HT2C receptor = 5HT2C receptor (Homo sapiens, UniProt P28335); settings: cited from earlier work
5HT2B receptor [2] = target: T1, 5HT2B receptor; settings: cited from earlier work; remark: listed apart in the source
human 5-HT2A receptor = human 5-HT2A receptor (Homo sapiens (Human), UniProt P28223); settings: cited from earlier work
mouse OCD model = settings: cited from earlier work

5HT2C receptor, sequence (P28335 33-458 limits assumed): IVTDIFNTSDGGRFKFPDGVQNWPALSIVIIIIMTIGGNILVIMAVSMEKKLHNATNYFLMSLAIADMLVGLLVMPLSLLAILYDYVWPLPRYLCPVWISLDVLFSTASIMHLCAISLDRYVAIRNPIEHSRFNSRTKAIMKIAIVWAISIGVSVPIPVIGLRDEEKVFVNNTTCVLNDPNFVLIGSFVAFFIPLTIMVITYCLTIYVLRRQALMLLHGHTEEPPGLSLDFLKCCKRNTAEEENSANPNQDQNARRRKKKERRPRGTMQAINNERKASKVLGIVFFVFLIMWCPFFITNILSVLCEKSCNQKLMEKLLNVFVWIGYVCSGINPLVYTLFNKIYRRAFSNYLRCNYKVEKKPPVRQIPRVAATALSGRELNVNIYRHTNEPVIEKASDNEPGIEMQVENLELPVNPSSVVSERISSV
T1 sequence (P41595 whole entry, looked up): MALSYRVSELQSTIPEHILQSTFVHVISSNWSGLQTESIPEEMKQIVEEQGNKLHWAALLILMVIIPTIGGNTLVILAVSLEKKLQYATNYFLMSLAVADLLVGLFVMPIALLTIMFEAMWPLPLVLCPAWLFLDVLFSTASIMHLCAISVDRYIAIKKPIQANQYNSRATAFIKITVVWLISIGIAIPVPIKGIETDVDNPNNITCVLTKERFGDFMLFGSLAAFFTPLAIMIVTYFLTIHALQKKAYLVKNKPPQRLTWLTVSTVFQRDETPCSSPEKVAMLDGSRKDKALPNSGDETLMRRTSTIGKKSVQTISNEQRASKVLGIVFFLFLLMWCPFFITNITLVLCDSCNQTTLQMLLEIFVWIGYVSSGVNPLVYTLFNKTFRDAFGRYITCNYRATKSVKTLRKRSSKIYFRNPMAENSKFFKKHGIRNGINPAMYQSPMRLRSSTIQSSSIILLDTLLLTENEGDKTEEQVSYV
5-HT1B, sequence (P28222 whole entry, looked up, species assumed): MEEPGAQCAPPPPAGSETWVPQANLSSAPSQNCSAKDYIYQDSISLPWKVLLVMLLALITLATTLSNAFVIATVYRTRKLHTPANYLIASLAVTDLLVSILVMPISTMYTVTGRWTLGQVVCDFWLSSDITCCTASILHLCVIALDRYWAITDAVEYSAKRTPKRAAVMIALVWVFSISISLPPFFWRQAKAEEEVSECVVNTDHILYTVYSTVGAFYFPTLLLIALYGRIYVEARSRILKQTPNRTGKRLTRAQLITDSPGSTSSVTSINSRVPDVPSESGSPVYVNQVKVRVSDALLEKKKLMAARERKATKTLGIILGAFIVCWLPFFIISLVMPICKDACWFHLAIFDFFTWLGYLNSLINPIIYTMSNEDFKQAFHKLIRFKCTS
5-HT5, sequence (P47898 whole entry, looked up, species assumed): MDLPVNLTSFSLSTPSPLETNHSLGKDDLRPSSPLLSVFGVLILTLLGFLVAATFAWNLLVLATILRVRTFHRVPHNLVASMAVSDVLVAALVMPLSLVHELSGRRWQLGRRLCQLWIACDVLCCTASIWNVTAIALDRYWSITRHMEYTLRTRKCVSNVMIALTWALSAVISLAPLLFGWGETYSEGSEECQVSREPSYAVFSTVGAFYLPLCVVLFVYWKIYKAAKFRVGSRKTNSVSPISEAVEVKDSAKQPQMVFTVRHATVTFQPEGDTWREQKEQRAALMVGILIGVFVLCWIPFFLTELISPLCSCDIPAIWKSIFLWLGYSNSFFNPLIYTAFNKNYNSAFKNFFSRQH
5-HT6, sequence (P50406 whole entry, looked up, species assumed): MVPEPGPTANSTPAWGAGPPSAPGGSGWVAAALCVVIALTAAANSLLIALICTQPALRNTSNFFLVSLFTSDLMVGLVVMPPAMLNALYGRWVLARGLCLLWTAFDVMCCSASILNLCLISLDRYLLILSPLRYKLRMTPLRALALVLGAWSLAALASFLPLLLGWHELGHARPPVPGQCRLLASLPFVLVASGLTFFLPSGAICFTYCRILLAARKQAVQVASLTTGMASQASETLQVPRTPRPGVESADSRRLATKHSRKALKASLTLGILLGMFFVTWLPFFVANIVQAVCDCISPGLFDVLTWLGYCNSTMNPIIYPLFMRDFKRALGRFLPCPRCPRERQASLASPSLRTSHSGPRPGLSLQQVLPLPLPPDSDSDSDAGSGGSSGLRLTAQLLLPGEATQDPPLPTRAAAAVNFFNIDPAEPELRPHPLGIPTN
5-HT3, sequence (P46098 whole entry, looked up, species assumed): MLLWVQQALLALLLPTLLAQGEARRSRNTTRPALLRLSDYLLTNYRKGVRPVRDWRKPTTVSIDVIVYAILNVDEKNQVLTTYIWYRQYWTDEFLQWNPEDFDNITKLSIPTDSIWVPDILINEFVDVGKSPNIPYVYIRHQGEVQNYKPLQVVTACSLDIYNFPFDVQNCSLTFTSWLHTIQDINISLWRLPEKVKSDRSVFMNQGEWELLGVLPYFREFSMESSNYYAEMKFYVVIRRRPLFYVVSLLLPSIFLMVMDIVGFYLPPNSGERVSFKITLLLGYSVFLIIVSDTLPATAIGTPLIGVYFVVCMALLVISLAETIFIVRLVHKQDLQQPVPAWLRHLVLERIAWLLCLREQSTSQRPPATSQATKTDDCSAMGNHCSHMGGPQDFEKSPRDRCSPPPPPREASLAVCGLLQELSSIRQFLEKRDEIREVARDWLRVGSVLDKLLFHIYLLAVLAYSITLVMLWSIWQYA
5-HT7, sequence (P34969 whole entry, looked up, species assumed): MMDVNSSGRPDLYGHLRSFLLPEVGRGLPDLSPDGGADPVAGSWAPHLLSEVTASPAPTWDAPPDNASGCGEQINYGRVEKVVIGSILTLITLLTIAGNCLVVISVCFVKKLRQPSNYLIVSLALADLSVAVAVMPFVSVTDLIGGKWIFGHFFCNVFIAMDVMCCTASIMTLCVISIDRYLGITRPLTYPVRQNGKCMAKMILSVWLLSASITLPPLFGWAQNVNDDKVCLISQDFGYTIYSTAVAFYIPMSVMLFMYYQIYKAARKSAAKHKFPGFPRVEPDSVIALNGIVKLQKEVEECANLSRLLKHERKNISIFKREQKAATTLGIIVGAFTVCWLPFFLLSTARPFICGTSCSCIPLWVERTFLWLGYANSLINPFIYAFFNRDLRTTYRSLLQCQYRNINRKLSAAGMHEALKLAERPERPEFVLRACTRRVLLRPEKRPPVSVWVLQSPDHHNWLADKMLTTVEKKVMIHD
5-HT1D, sequence (P28221 whole entry, looked up, species assumed): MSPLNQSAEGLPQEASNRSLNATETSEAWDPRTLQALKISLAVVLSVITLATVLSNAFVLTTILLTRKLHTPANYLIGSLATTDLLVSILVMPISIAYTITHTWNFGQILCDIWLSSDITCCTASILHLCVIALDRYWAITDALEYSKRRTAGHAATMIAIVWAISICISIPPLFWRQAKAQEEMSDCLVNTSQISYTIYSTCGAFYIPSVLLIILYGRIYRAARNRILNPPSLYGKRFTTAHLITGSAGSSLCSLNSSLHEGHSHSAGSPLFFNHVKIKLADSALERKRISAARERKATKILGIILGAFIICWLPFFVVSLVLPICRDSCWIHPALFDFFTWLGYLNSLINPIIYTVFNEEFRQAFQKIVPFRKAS

Q: With `CN(C)CCc1c[nH]c2cccc(O)c12` [Psilocin, psilocin] as the molecule, how does the Ki (5-HT6) read?
A: 57 nM

Q: What about the Ki (5-HT3) of the same molecule?
A: > 10000 nM

Q: What about the Ki (SERT) of the same molecule?
A: 3800 nM

Q: And the “Effect on dopamine receptors” value (dopamine receptors)?
A: no significant effect

Q: And the Ki (5-HT1B)?
A: 219 nM

Q: And the Ki (5-HT7)?
A: 3.5 nM

Q: What about the Ki (5-HT5) of the same molecule?
A: 84 nM

Q: And the Ki (5-HT1D)?
A: 36 nM

Q: Which “Efficacy in mouse head twitch assay” value (mouse head twitch) does the source give for `CN(C)CCc1cn(C)c2cccc(O)c12` [compound 1] here?
A: efficacious

Q: What about the “Agonist activity at 5-HT2B receptors” value (5HT2B receptor [1]) of the same molecule?
A: inactive

Q: And the EC50 (5HT2C receptor; phosphoinositol hydrolysis, read-out: Agonist potency at human 5-HT2C receptor)?
A: 12 nM

Q: What about the “Functional efficacy response vs serotonin, 5-HT2C” value (5HT2C receptor; serotonin set at 100%) of the same molecule?
A: ca. 45%

Q: What about the “Antagonist potency at 5-HT2B receptors” value (5HT2B receptor [2]) of the same molecule?
A: 38 nM

Q: What about the “Functional efficacy response vs serotonin, 5-HT2A” value (human 5-HT2A receptor) of the same molecule?
A: ca. 30%

Q: And the EC50 (human 5-HT2A receptor; phosphoinositol hydrolysis, read-out: Agonist potency at human 5-HT2A receptor)?
A: 633 nM

Q: What about the “Efficacy in mouse OCD model” value (mouse OCD model) of the same molecule?
A: efficacy in a mouse OCD model demonstrated
